The first series concerns Botrytis cinerea. As to the kind of experiment: Botrytis test (bean)/protective. To be noted: 48 h, bean plants, protective spray, 500 g/ha, evaluation two days after inoculation, read-out: Efficacy in %. The series is classed as in vivo. Here is the method:
Botrytis Test (Bean)/Protective
(§1) • Solvents: 24.5 parts by weight of acetone • 24.5 parts by weight of dimethylacetamide • Emulsifier: 1 part by weight of alkylaryl polyglycol ether
(§2) To produce a suitable preparation of active compound, 1 part by weight of active compound is mixed with the stated amounts of solvent and emulsifier, and the concentrate is diluted with water to the desired concentration.
To test for protective activity, young plants are sprayed with the preparation of active compound at the stated application rate. After the spray coating has dried on, 2 small pieces of agar colonized by Botrytis cinerea are placed under each leaf. The inoculated plants are placed in a dark chamber at about 20° C. and 100% relative atmospheric humidity.
Two days after the inoculation, the size of the infected areas on the leaves is evaluated. 0% means an efficacy which corresponds to that of the control, whereas an efficacy of 100% means that no infection is observed.
With `CC(C)CC(C)c1ccccc1NC(=O)c1cn(C)nc1C(C)F` (stereo not drawn) [drawing 109], the pest or weed control at 500 g/ha turned out to be 99%. For `CC1=C(C(=O)Nc2ccc(F)cc2C(C)CC(C)C)SCCO1` (stereo not drawn) [drawing 116], the pest or weed control at 500 g/ha is 100%. `Cc1nc(C(F)(F)F)c(C(=O)Nc2ccc(F)cc2C(C)CC(C)C)s1` (stereo not drawn) [drawing 113]: the pest or weed control at 500 g/ha is 100%. Take `Cc1sccc1C(=O)Nc1ccc(F)cc1C(C)CC(C)C` (stereo not drawn) [drawing 112]: the pest or weed control at 500 g/ha stood at 100%. On the same count and under the same terms, with `Cc1ccsc1C(=O)Nc1ccc(F)cc1C(C)CC(C)C` (stereo not drawn) [drawing 114] the figure was 98%; with `CC(C)CC(C)c1cc(F)ccc1NC(=O)c1cn(C)nc1C(F)F` (stereo not drawn) [drawing 111], 100%; with `Cc1nc(C(F)F)c(C(=O)Nc2ccc(F)cc2C(C)CC(C)C)s1` (stereo not drawn) [drawing 115], 100%.

System in a further series: not listed separately
The series can be described thus: logP determination by HPLC on a reversed-phase column (EEC Directive 79/831 Annex V.A8). The note with it: reversed-phase C18 HPLC column, pH 2.3, C 18 reversed phase, 43° C. In kind it is physicochemical. Here is the method:
The logP values given in the Preparation Examples and tables above are determined in accordance with EEC Directive 79/831 Annex V.A8 by HPLC (High Performance Liquid Chromatography) on a reversed-phase column (C 18). Temperature: 43° C.
The determination is carried out in the acidic range at pH 2.3 using the mobile phases 0.1% aqueous phosphoric acid and acetonitrile; linear gradient from 10% acetonitrile to 90% acetonitrile.
Calibration is carried out using unbranched alkan-2-ones (with 3 to 16 carbon atoms) with known logP values (determination of the logP values by the retention times using linear interpolation between two successive alkanones).
The compound `COc1nc(C)sc1C(=O)O` [II-2] displayed a chromatographic logP of 0.77.

In turn, `COC(=O)c1cn(C)nc1C=O` [Example X-1] yielded a chromatographic logP of 0.46. Still for that read-out and setting: with `CCOC(=O)c1sc(C)nc1OC` [II-1] the figure was 1.9. The same measure, in the same setting: for `COc1nc(C)sc1C(=O)Nc1ccccc1C(C)CC(C)C` (stereo not drawn) [Example 3, N-[2-(1,3-dimethylbutyl)phenyl]-4-methoxy-2-methyl-1,3-thiazole-5-carboxamide] the value was 4.45.

Take `CCOC(=O)c1sc(C)nc1OC(F)F` [II-6]: the chromatographic logP was 2.54. On the same count and under the same terms, for `CC(C)CC(C)c1ccccc1NC(=O)c1cn(C)nc1C=O` (stereo not drawn) [Example 2, N-[2-(1,3-dimethylbutyl)phenyl]-3-formyl-1-methyl-1H-pyrazole-4-carboxamide] the value was 3.64. `Cc1nc(OC(F)F)c(C(=O)O)s1` [II-7]: the chromatographic logP was found to be 1.29.

For `CCOC(=O)c1cn(C)nc1OC` [II-4], the chromatographic logP was 1.14.

The compound `COC(=O)c1cn(C)nc1C(Cl)Cl` [XII-1] returned a chromatographic logP of 1.8. `Cn1cc(C(=O)O)c(C=O)n1` [XI-1]: the chromatographic logP was -0.19. Compound `Cc1nc(O)c(C(=O)Nc2ccccc2C(C)CC(C)C)s1` (stereo not drawn) [Example 4, N-[2-(1,3-dimethylbutyl)phenyl]-4-hydroxy-2-methyl-1,3-thiazole-5-carboxamide] came in with a chromatographic logP of 2.68. On to `CC(C)CC(C)c1ccccc1NC(=O)c1cn(C)nc1C(Cl)Cl` (stereo not drawn) [Example 1, 3-(dichloromethyl)-1-methyl-N-[2-(1,3-dimethylbutyl)phenyl]-1H-pyrazole-4-carboxamide], for which the chromatographic logP stood at 3.74.

The test system of the next series is Puccinia recondita. The series can be described thus: Puccinia test (wheat)/protective. In kind it is in vivo. To be noted: 240 h, wheat plants, protective spray, evaluation 10 days after inoculation, read-out: Efficacy in %. As to the method:
Puccinia Test (Wheat)/Protective
Solvent: 50 parts by weight of N,N-dimethylacetamide
Emulsifier: 1 part by weight of alkylaryl polyglycol ether
as §2
To test for protective activity, young plants are sprayed with the preparation of active compound at the stated application rate. After the spray coating has dried on, the plants are sprayed with a conidia suspension of Puccinia recondita. The plants remain in an incubation cabinet at 20° C. and 100% relative atmospheric humidity for 48 hours.
The plants are then placed in a greenhouse at a temperature of about 20° C. and a relative atmospheric humidity of 80% to promote the development of rust pustules.
(§3) Evaluation is carried out 10 days after the inoculation. 0% means an efficacy which corresponds to that of the control, whereas an efficacy of 100% means that no infection is observed.
For `CC(C)CC(C)c1cc(F)ccc1NC(=O)c1cn(C)nc1C(F)F` (stereo not drawn) [drawing 124], the pest or weed control at 500 g/ha stood at 100%.

`Cc1sccc1C(=O)Nc1ccc(F)cc1C(C)CC(C)C` (stereo not drawn) [drawing 125]: the pest or weed control at 500 g/ha was 100%. On the same count and under the same terms, for `CC(C)CC(C)c1cc(F)ccc1NC(=O)c1cccnc1Cl` (stereo not drawn) the value was 100%. `Cc1sccc1C(=O)Nc1ccccc1C(C)CC(C)C` (stereo not drawn) [drawing 118]: the pest or weed control at 500 g/ha stood at 100%. Turning to `Cc1nc(C(F)(F)F)c(C(=O)Nc2ccc(F)cc2C(C)CC(C)C)s1` (stereo not drawn) [drawing 127], the pest or weed control at 500 g/ha came out at 100%. Take `Cc1nc(C(F)F)c(C(=O)Nc2ccc(F)cc2C(C)CC(C)C)s1` (stereo not drawn) [drawing 129]: the pest or weed control at 500 g/ha is 100%. On to `Cc1ccsc1C(=O)Nc1ccc(F)cc1C(C)CC(C)C` (stereo not drawn) [drawing 128], for which the pest or weed control at 500 g/ha stood at 100%. On the same count and under the same terms, with `CC(C)CC(C)c1cc(F)ccc1NC(=O)c1cn(C)nc1Cl` (stereo not drawn) the figure was 100%; with `CC1=C(C(=O)Nc2ccc(F)cc2C(C)CC(C)C)SCCO1` (stereo not drawn) [drawing 130], 100%; with `CC(C)CC(C)c1ccccc1NC(=O)c1cn(C)nc1Cl` (stereo not drawn) [drawing 120], 100%. Regarding `CC(C)CC(C)c1ccccc1NC(=O)c1ccoc1C(F)(F)F` (stereo not drawn) [drawing 119], the pest or weed control at 500 g/ha came out at 100%.

In the case of `Cc1nc(Cl)sc1C(=O)Nc1ccccc1C(C)CC(C)C` (stereo not drawn), the pest or weed control at 500 g/ha came out at 100%. `Cc1occc1C(=O)Nc1ccc(F)cc1C(C)CC(C)C` (stereo not drawn): the pest or weed control at 500 g/ha stood at 100%. Still for that read-out and setting: with `CC(C)CC(C)c1cc(F)ccc1NC(=O)c1cn(C)nc1C(F)(F)F` (stereo not drawn) [drawing 121] the figure was 100%.

In a further series the test system is Podosphaera leucotricha. The series can be described thus: Podosphaera test (apple)/protective. The series is classed as in vivo. The note with it: 240 h, apple plants, protective spray, evaluation 10 days after inoculation, read-out: Efficacy in %. As to the method:
Podosphaera Test (Apple)/Protective
• Solvents: 24.5 parts by weight of acetone • 24.5 parts by weight of dimethylacetamide • Emulsifier: 1 part by weight of alklylaryl polyglycol ether
(§4) To produce a suitable preparation of active compound, 1 part by weight of active compound is mixed with the stated amounts of solvents and emulsifier, and the concentrate is diluted with water to the desired concentration.
To test for protective activity, young plants are sprayed with the preparation of active compound at the stated application rate. After the spray coating has dried on, the plants are inoculated with an aqueous spore suspension of the apple mildew pathogen Podosphaera leucotricha. The plants are then placed in a greenhouse at about 23° C. and a relative atmospheric humidity of about 70%.
as §3
Consider `Cc1nc(C(F)(F)F)c(C(=O)Nc2ccc(F)cc2C(C)CC(C)C)s1` (stereo not drawn) [drawing 90], for which the pest or weed control at 100 g/ha is 100%. Same read-out and setting: for `CC(C)CC(C)c1ccccc1NC(=O)c1scnc1Cl` (stereo not drawn) [drawing 82] the value was 100%; for `CC(C)CC(C)c1ccccc1NC(=O)c1cn(C)nc1Cl` (stereo not drawn) [drawing 85], 100%. For the compound `Cc1ccsc1C(=O)Nc1ccc(F)cc1C(C)CC(C)C` (stereo not drawn) [drawing 91], the pest or weed control at 100 g/ha worked out at 99%. As for `CC(C)CC(C)c1cc(F)ccc1NC(=O)c1cn(C)nc1C(F)F` (stereo not drawn) [drawing 88], the pest or weed control at 100 g/ha amounted to 100%.

On to `CC1=C(C(=O)Nc2ccc(F)cc2C(C)CC(C)C)SCCO1` (stereo not drawn) [drawing 93], for which the pest or weed control at 100 g/ha was 100%. Take `CC(C)CC(C)c1ccccc1NC(=O)c1cn(C)nc1C(C)F` (stereo not drawn) [drawing 86]: the pest or weed control at 100 g/ha is 100%. Same read-out and setting: for `Cc1sccc1C(=O)Nc1ccccc1C(C)CC(C)C` (stereo not drawn) [drawing 83] the value was 100%. On to `Cc1nc(C(F)F)c(C(=O)Nc2ccc(F)cc2C(C)CC(C)C)s1` (stereo not drawn) [drawing 92], for which the pest or weed control at 100 g/ha was determined as 100%.

Turning to `Cc1sccc1C(=O)Nc1ccc(F)cc1C(C)CC(C)C` (stereo not drawn) [drawing 89], the pest or weed control at 100 g/ha came out at 100%. As to `CC(C)CC(C)c1ccccc1NC(=O)c1ccoc1C(F)(F)F` (stereo not drawn) [drawing 84], the pest or weed control at 100 g/ha was determined as 98%. With `CC(C)CC(C)c1cc(F)ccc1NC(=O)c1cn(C)nc1C(F)(F)F` (stereo not drawn) [drawing 87], the pest or weed control at 100 g/ha worked out at 88%.

A further series deals with Venturia inaequalis. As to the kind of experiment: Venturia test (apple)/protective. The series is classed as in vivo. The note with it: 240 h, apple plants, protective spray, evaluation 10 days after inoculation, read-out: Efficacy in %. Here is the method:
Venturia Test (Apple)/Protective
as §1, §4
To test for protective activity, young plants are sprayed with the preparation of active compound at the stated application rates. After the spray coating has dried on, the plants are inoculated with an aqueous conidia suspension of the apple scab pathogen Venturia inaequalis and then remain in an incubation cabinet about 20° C. and 100% relative atmospheric humidity for 1 day.
The plants are then placed in a greenhouse at about 21° C. and a relative atmospheric humidity of about 90%.
as §3
In the case of `CC(C)CC(C)c1ccccc1NC(=O)c1cn(C)nc1Cl` (stereo not drawn) [drawing 97], the pest or weed control at 100 g/ha is 100%. On the same count and under the same terms, with `Cc1ccsc1C(=O)Nc1ccc(F)cc1C(C)CC(C)C` (stereo not drawn) [drawing 103] the figure was 100%; with `CC(C)CC(C)c1ccccc1NC(=O)c1ccoc1C(F)(F)F` (stereo not drawn) [drawing 96], 96%; with `CC(C)CC(C)c1ccccc1NC(=O)c1scnc1Cl` (stereo not drawn) [drawing 94], 99%. For `CC1=C(C(=O)Nc2ccc(F)cc2C(C)CC(C)C)SCCO1` (stereo not drawn) [drawing 105], the pest or weed control at 100 g/ha came to 100%.

With `Cc1nc(C(F)F)c(C(=O)Nc2ccc(F)cc2C(C)CC(C)C)s1` (stereo not drawn) [drawing 104], the pest or weed control at 100 g/ha worked out at 100%.

Take `CC(C)CC(C)c1cc(F)ccc1NC(=O)c1cn(C)nc1C(F)F` (stereo not drawn) [drawing 100]: the pest or weed control at 100 g/ha was found to be 100%. Turning to `Cc1sccc1C(=O)Nc1ccccc1C(C)CC(C)C` (stereo not drawn) [drawing 95], the pest or weed control at 100 g/ha stood at 100%. Take `Cc1sccc1C(=O)Nc1ccc(F)cc1C(C)CC(C)C` (stereo not drawn) [drawing 101]: the pest or weed control at 100 g/ha was 94%.

On to `CC(C)CC(C)c1cc(F)ccc1NC(=O)c1cn(C)nc1C(F)(F)F` (stereo not drawn) [drawing 99], for which the pest or weed control at 100 g/ha was 100%. As to `Cc1nc(C(F)(F)F)c(C(=O)Nc2ccc(F)cc2C(C)CC(C)C)s1` (stereo not drawn) [drawing 102], the pest or weed control at 100 g/ha is 100%. On the same count and under the same terms, for `CC(C)CC(C)c1ccccc1NC(=O)c1cn(C)nc1C(C)F` (stereo not drawn) [drawing 98] the value was 100%.

The values above are taken from patent publication US20070196406A1, “1,3-Dimethylbutyl carboxanilides for controlling undesirable micro-organisms” (priority 2003, published 2007).
